Measured values from US11566007B2, “Ras inhibitors” (Revolution Medicines, Inc., priority 2019, dated 2023).

Tests used:
[1] = test system: NCI-H358 cells (K-Ras G12C); assay: Potency assay: pERK in NCI-H358 cells; assay type: cell-based, human; conditions: Homo sapiens, NCI-H358; H358 KRAS G12C; read-out: pERK EC50
In short: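 4 h cpd, 37 °C; 10-pt 3-fold series, 10 mM DMSO top stock, duplicates. Readout pERK: AlphaLISA SureFire Ultra or In-Cell Western (IR-800CW secondary, DRAQ5 DNA stain). IC50, 4-PL fit vs log conc.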

[2] = biological target: K-Ras G12C (Homo sapiens (Human), UniProt P01116+P62937, G12C); assay: Ras-Raf (BRAF RBD) disruption / FRET / MOA assay, KRAS G12C; assay type: biochemical; conditions: KRAS G12C; Ras-Raf disruption/FRET/MOA assay; read-out: IC50* KRAS G12C FRET data
In short: (§1)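 Ras:RAF disruption was scored as a fall in TR-FRET ratio relative to DMSO. Compound ranged in 3-fold steps over 10 points from 30 μM final; incubation ran 3 h at 25° C, detection antibodies a further 1.5 h. Reported as IC50.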

[3] = biological target: K-Ras G13C (Homo sapiens (Human), UniProt P01116+P62937, G13C); assay: Ras-Raf (BRAF RBD) disruption / FRET / MOA assay, KRAS G13C; assay type: biochemical; conditions: KRAS G13C; Ras-Raf disruption/FRET/MOA assay; read-out: IC50* KRAS G13C FRET data
In short: as §1

[4] = biological target: KRAS Q61H (Homo sapiens (Human), UniProt P01116+P62937, Q61H); assay: Ras-Raf (BRAF RBD) disruption / FRET / MOA assay, KRAS Q61H; assay type: biochemical; conditions: Ras-Raf disruption/FRET/MOA assay; class symbols; read-out: KRAS Q61H FRET data IC50
In short: (§2)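 TR-FRET disruption of nucleotide-loaded Ras binding to BRAF RBD via compound-driven ternary complex with cyclophilin A. Compound as 10-point 3-fold series from 30 μM final, 3 h at 25° C, then anti-His Eu-W1024 (10 nM) and anti-GST allophycocyanin (50 nM) for 1.5 h. IC50 from decreased FRET ratio versus DMSO.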

[5] = biological target: NRAS Q61R (Homo sapiens (Human), UniProt P01111+P62937, Q61R); assay: Ras-Raf (BRAF RBD) disruption / FRET / MOA assay, NRAS Q61R; assay type: biochemical; conditions: NRAS Q61R; Ras-Raf disruption/FRET/MOA assay; read-out: IC50* NRAS Q61R FRET data
In short: as §2

[6] = biological target: NRAS WT (Homo sapiens (Human), UniProt P01111+P62937); assay: Ras-Raf (BRAF RBD) disruption / FRET / MOA assay, NRAS WT; assay type: biochemical; conditions: read-out: IC50* NRAS WT FRET data
In short: as §2

Chain of K-Ras G12C (P01116-2 other isoform, or with tags, fused parts or gaps G12C): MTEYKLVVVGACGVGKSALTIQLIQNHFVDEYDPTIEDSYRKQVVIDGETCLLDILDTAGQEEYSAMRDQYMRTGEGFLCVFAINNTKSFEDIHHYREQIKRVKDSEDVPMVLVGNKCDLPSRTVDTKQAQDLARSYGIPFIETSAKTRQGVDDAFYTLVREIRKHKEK
Chain of K-Ras G12C (P62937 whole entry): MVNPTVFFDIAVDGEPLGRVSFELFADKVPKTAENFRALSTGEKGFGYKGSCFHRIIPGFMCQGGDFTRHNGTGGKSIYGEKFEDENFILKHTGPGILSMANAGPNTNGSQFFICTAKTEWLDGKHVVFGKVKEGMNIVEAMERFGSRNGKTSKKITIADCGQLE
Chain of KRAS Q61H (P01116-2 other isoform, or with tags, fused parts or gaps Q61H): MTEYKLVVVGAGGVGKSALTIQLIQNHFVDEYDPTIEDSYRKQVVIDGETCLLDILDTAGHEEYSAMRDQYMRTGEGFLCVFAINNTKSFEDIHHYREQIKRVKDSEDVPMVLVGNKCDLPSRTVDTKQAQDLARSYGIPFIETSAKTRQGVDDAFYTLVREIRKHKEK
Chain of KRAS Q61H (P62937 whole entry): as the sequence (P62937 whole entry) above
Chain of K-Ras G13C (P01116-2 other isoform, or with tags, fused parts or gaps G13C): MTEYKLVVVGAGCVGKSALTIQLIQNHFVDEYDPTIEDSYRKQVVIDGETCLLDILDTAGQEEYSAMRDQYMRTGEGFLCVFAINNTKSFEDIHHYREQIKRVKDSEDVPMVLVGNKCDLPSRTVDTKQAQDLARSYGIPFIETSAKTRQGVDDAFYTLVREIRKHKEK
Chain of K-Ras G13C (P62937 whole entry): as the sequence (P62937 whole entry) above
Chain of NRAS Q61R (P01111 whole entry Q61R): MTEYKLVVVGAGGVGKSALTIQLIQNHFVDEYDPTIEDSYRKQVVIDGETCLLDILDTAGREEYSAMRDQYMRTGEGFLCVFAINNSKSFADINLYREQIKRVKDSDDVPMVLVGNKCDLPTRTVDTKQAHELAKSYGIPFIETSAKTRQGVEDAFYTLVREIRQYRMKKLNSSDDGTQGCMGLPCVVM
Chain of NRAS Q61R (P62937 whole entry): as the sequence (P62937 whole entry) above
Chain of NRAS WT (P01111 whole entry): as the sequence (P01111 whole entry Q61R) above, with R61Q counted along it
Chain of NRAS WT (P62937 whole entry): as the sequence (P62937 whole entry) above

SMILES	EC50 [1]	IC50 [2]	IC50 [3]	IC50 [4]	IC50 [5]	IC50 [6]
C=CC(=O)N1CCO[C@]2(CCN(C(=O)N(C)[C@H](C(=O)N[C@H]3Cc4nc(cs4)-c4ccc5c(c4)c(c(-c4cccnc4[C@H](C)OC)n5CC(F)(F)F)CC(C)(C)COC(=O)[C@@H]4CCCN(N4)C3=O)C(C)C)C2)C1 (atropisomer, axis not shown) [Example A593]	< 5 µM	0.1 to 1 µM	0.1 to 1 µM	0.1 to 1 µM	0.1 to 1 µM	0.1 to 1 µM
CCn1c(-c2cccnc2[C@H](C)OC)c2c3cc(ccc31)-c1csc(n1)C[C@H](NC(=O)[C@H](C(C)C)N(C)C(=O)N1CCC13CN(C(=O)/C=C/CN(C)C)C3)C(=O)N1CCC[C@H](N1)C(=O)OCC(C)(C)C2 (atropisomer, axis not shown) [Example A598]	< 5 µM	0.01 to 0.1 µM	0.1 to 1 µM	< 0.01 µM	0.01 to 0.1 µM	0.01 to 0.1 µM
C=CC(=O)N1CCOC2(CCN(C(=O)N(C)[C@H](C(=O)N[C@H]3Cc4cccc(n4)-c4ccc5c(c4)c(c(-c4cccnc4[C@H](C)OC)n5CC(F)(F)F)CC(C)(C)COC(=O)[C@@H]4CCCN(N4)C3=O)C(C)C)CC2)C1 (atropisomer, axis not shown) [Example A607, 4-acryloyl-N-((2S)-1-(((6^3S,4S)-1^2-(2-((S)-1-methoxyethyl)pyridin-3-yl)-10,10-dimethyl-5,7-dioxo-1^1-(2,2,2-trifluoroethyl)-6^1,6^2,6^3,6^4,6^5,6^6-hexahydro-1^1H-8-oxa-1(5,3)-indola-6(1,3)-pyridazina-2(2,6)-pyridinacycloundecaphane-4-yl)amino)-3-methyl-1-oxobutan-2-yl)-N-methyl-1-oxa-4,9-diazaspiro[5.5]undecane-9-carboxamide]	< 5 µM	0.1 to 1 µM	0.01 to 0.1 µM	0.1 to 1 µM	0.1 to 1 µM	0.1 to 1 µM
CCn1c(-c2cccnc2[C@H](C)OC)c2c3cc(ccc31)-c1csc(n1)C[C@H](NC(=O)[C@H](C(C)C)N(C)C(=O)N1CCC13CN(C(=O)/C=C/CN1CCOCC1)C3)C(=O)N1CCC[C@H](N1)C(=O)OCC(C)(C)C2 (atropisomer, axis not shown) [Example A611]	< 5 µM	0.1 to 1 µM	0.1 to 1 µM	0.01 to 0.1 µM	0.01 to 0.1 µM	0.1 to 1 µM
CCn1c(-c2cccnc2[C@H](C)OC)c2c3cc(ccc31)-c1cccc(c1)C[C@H](NC(=O)[C@@H](COC1CN(C(=O)C#CC(C)(C)N(C)C3CC3)C1)C(C)C)C(=O)N1CCC[C@H](N1)C(=O)OCC(C)(C)C2 (atropisomer, axis not shown) [Example A613]	< 5 µM	0.1 to 1 µM	> 10 µM	> 10 µM	> 10 µM	> 10 µM
CCn1c(-c2cccnc2[C@H](C)OC)c2c3cc(ccc31)N1CCC[C@@H](C[C@H](NC(=O)[C@H](C(C)C)N(C)C(=O)[C@H]3CCN(C(=O)C#CC(C)(C)N4CCC4)C3)C(=O)N3CCC[C@H](N3)C(=O)OCC(C)(C)C2)C1 (atropisomer, axis not shown) [Example A617]	< 5 µM	0.01 to 0.1 µM	> 10 µM	> 10 µM	> 10 µM	> 10 µM
C=CC(=O)N1CCC[C@H]2CN(C(=O)N(C)[C@H](C(=O)N[C@H]3Cc4nc(cs4)-c4ccc5c(c4)c(c(-c4cccnc4[C@H](C)OC)n5CC)CC(C)(C)COC(=O)[C@@H]4CCCN(N4)C3=O)C(C)C)C[C@H]21 (atropisomer, axis not shown) [Example A618]	< 5 µM	0.1 to 1 µM	0.1 to 1 µM	0.1 to 1 µM	0.1 to 1 µM	0.1 to 1 µM
CCn1c(-c2cccnc2[C@H](C)OC)c2c3cc(ccc31)-c1csc(n1)C[C@H](NC(=O)[C@H](C(C)C)N(C)C(=O)N1C[C@@H]3CN(C(=O)C#CC(C)(C)N(C)C)CC[C@@H]31)C(=O)N1CCC[C@H](N1)C(=O)OCC(C)(C)C2 (atropisomer, axis not shown) [Example A625]	< 5 µM	0.1 to 1 µM	0.1 to 1 µM	0.1 to 1 µM	0.1 to 1 µM	0.1 to 1 µM
C=CC(=O)N(C)[C@H]1CN(C(=O)N(C)[C@H](C(=O)N[C@H]2Cc3nc(cs3)-c3ccc4c(c3)c(c(-c3cccnc3[C@H](C)OC)n4CC)CC(C)(C)COC(=O)[C@@H]3CCCN(N3)C2=O)C(C)C)C[C@@H]1F (atropisomer, axis not shown) [Example A632]	< 5 µM	0.01 to 0.1 µM	0.01 to 0.1 µM	0.1 to 1 µM	0.1 to 1 µM	0.1 to 1 µM
